One may read the chromatographic logP as a lipophilicity value derived from retention on a column. High values mean higher lipophilicity, low ones lower lipophilicity.

Experimental findings from patent publication US20230165252A1, “ACTIVE COMPOUND COMBINATIONS” (Bayer Aktiengesellschaft, priority 2020, published 2023) are described below.

The nature of the first series: Measurement of Log P values by HPLC on reversed phase columns (EEC directive 79/831 Annex V.A8), methods [a], [b], [c]. In kind it is physicochemical. To be noted: HPLC method [a].
Procedure: Measurement of Log P values as provided herein was performed according to EEC directive 79/831 Annex V.A8 by HPLC (High Performance Liquid Chromatography) on reversed phase columns with the following methods: • ^[a]
`O=C(NCC(F)c1ccc(Br)cc1Cl)c1cc(Cl)nnc1Oc1cccc(C2CC2)c1` (racemic) [I-362]: the LogP was 4.87^[a].
On the same count and under the same terms, the result for `Cc1nnc(Oc2cccc(C(F)F)c2F)c(C(=O)NCC(F)c2ccc(Br)cc2Cl)c1C` (racemic) [I-369] reads 3.65^[a].

The series is the same for the next values; noted with them: HPLC on reversed phase column, method [a].
Regarding `Cc1cc(C(=O)NC2CCOc3c(C)cccc32)c(Oc2cccc(C(F)(F)F)c2)nn1` (racemic) [I-107], the LogP is 3.65^[a].
Still for that read-out and setting: the result for `Cc1ccc(C(F)CNC(=O)c2c(Oc3cccc(C4CC4)c3F)nnc(C)c2C)c(C)c1` (racemic) [I-836] reads 3.78^[a].

Staying with this series, now noted: method [a].
With `Cc1ccc(C(F)(F)CNC(=O)c2c(Oc3cccc(C(F)(F)F)c3)nnc(Cl)c2NC2CC2C2CC2)c(C)c1` (mixture of isomers) [I-812], the LogP is 4.87^[a].
Consider `O=C(NC1CCCc2ccsc21)c1cc(Cl)nnc1Cl` (racemic) [Compound 3-16], for which the LogP is 2.60^[a].
On the same count and under the same terms, the same measure for `CC(NC(=O)c1cc(Cl)nnc1Cl)c1cn(C)c2ccccc12` (racemic) [Compound 3-18]: 2.71^[a]; for `Cc1ccc(C(F)CNC(=O)c2c(Cl)nnc(Cl)c2C)c(Cl)c1` (racemic) [Compound 3-23]: 3.22^[a].
Still for that read-out and setting: the result for `O=C(NCC1CNc2ccccc21)c1cc(Cl)nnc1Oc1cccc(C(F)(F)F)c1` (racemic) [I-436] reads 2.42^[a]; that for `O=C(NC1CCCc2sc(Cl)cc21)c1cc(Cl)nnc1Oc1cccc(C(F)(F)F)c1` (racemic) [I-639], 4.68^[a]; that for `Cc1ccc(C(F)(F)CNC(=O)c2c(Oc3cccc(C(F)(F)F)c3)nnc(Cl)c2OCC2CC2(F)F)c(C)c1` (racemic) [I-683], 4.95^[a].
The same measure, in the same setting: the same measure for `O=C(NCC(F)c1ccc(Cl)cc1Cl)c1c(Oc2cccc(C3CC3)c2F)nnc(Cl)c1I` (racemic) [I-758]: 4.73^[a]; for `Cc1ccc(C(F)(F)CNC(=O)c2cc([S+](C)[O-])nnc2Oc2cccc(C(F)(F)F)c2)c(C)c1` (racemic) [I-781]: 3.65^[a]; for `O=C(NCC(F)c1ccc(Cl)cc1Cl)c1c(Oc2cccc(C3CC3)c2F)nnc(Cl)c1O` (racemic) [I-782]: 5.13^[a].
Take `Cc1ccc(C(F)(F)CNC(=O)c2cc(C3CCOC3)nnc2Oc2cccc(C(F)(F)F)c2)c(C)c1` (racemic) [I-794]: the LogP is 3.78^[a].

Staying with this series, now noted: method [a]: LC-UV, acidic range, 0.1% formic acid in water and acetonitrile as eluent (10% to 95% acetonitrile); Table 3, compounds of formula (1).
With `Cc1c(Cl)nnc(Oc2cccc(C3CC3(F)F)c2)c1C(=O)O` (racemic) [Compound 1-105], the LogP is 1.69^[a].
The same measure, in the same setting: the result for `Cc1c(Cl)nnc(Oc2cccc(C3CC3)c2F)c1C(=O)O` [Compound 1-005] reads 1.84^[a]; that for `N#Cc1cc(C(=O)O)c(Oc2cccc(C(F)(F)F)c2)nn1` [Compound 1-007], 1.74^[a].
Still for that read-out and setting: the result for `Cc1nnc(Oc2cccc(C(F)(F)F)c2F)c(C(=O)O)c1C` [Compound 1-009] reads 1.40^[a]; that for `CC(C)OC(=O)c1cc(Cl)nnc1Oc1cccc(F)c1F` [Compound 1-011], 3.65^[a]; that for `O=C(O)c1cc(C2CC2)nnc1Oc1cccc(C(F)F)c1` [Compound 1-012], 1.68^[a].
Same read-out and setting: the same measure for `Cc1nnc(Oc2cccc(C(F)F)c2F)c(C(=O)O)c1C` [Compound 1-013]: 0.96^[a]; for `C#Cc1cccc(Oc2nnc(Cl)cc2C(=O)O)c1` [Compound 1-017]: 1.50^[a].
Consider `Cc1nnc(Oc2cccc(Cl)c2)c(C(=O)O)c1C` [Compound 1-018], for which the LogP was 0.80^[a].
On to `Cc1cc(C(=O)O)c(Oc2cncc(C(F)(F)F)c2)nn1` [Compound 1-019], for which the LogP was 1.01^[a].
`O=C(O)c1cc(-c2ccncc2Cl)nnc1Oc1cccc(C(F)F)c1F` [Compound 1-020]: the LogP was 1.86^[a].
Still for that read-out and setting: the same measure for `O=C(O)c1cc(N2CCCC2)nnc1Oc1cccc(C(F)(F)F)c1` [Compound 1-021]: 1.08^[a]; for `O=C(O)c1cc(Cl)nnc1Oc1cccc(F)c1F` [Compound 1-024]: 1.65^[a]; for `O=C(O)c1cc(Cl)nnc1Oc1cncc(C(F)(F)F)c1` [Compound 1-025]: 1.31^[a].
On the same count and under the same terms, the result for `Cc1nnc(Oc2cccc(C3CC3)c2)c(C(=O)O)c1C` [Compound 1-037] reads 1.10^[a]; that for `O=C(O)c1cc(C2CC2)nnc1Oc1cccc(C(F)(F)F)c1` [Compound 1-043], 1.90^[a].
On the same count and under the same terms, the result for `O=C(O)c1cc(Cl)nnc1Oc1cccc(Br)c1` [Compound 1-048] reads 1.66^[a].
Take `CC(C)OC(=O)c1cc(-n2ccnc2)nnc1Oc1cccc(C(F)(F)F)c1` [Compound 1-050]: the LogP was 2.55^[a].
Still for that read-out and setting: the result for `O=C(O)c1cc(-c2ccncc2Cl)nnc1Oc1cccc(F)c1F` [Compound 1-053] reads 1.22^[a]; that for `O=C(O)c1cc(C(F)(F)F)nnc1Oc1cccc(C(F)(F)F)c1` [Compound 1-057], 2.27^[a]; that for `CC(C)OC(=O)c1cc(-c2ccncc2Cl)nnc1Oc1cccc(F)c1F` [Compound 1-074], 3.65^[a].
For `Cc1nnc(Oc2cccc(C3CC3)c2F)c(C(=O)O)c1C` [Compound 1-077], the LogP was 1.31^[a].
The same measure, in the same setting: the result for `COC(=O)c1c(Oc2cccc(C(F)(F)F)c2)nnc(Cl)c1-n1cccn1` [Compound 1-084] reads 3.53^[a].

The same series, now with this note: method [a]: LC-UV, acidic range, 0.1% formic acid in water and acetonitrile as eluent; Table 5, compounds of formula (2).
On to `NCC(F)c1ccc(I)cc1` (racemic) [Compound 2-05], for which the LogP was 0.73^[a].
The same measure, in the same setting: the same measure for `Cc1cc(C(F)F)ccc1C(F)CN` (racemic) [Compound 2-06]: 0.69^[a]; for `NCC(F)c1ccc(C2CC2)cc1Cl` (racemic) [Compound 2-07]: 1.15^[a].

Staying with this series, now noted: method [b]: LC-UV, neutral range, 0.001 molar ammonium acetate solution in water and acetonitrile as eluent (10% to 95% acetonitrile); Table 3, compounds of formula (1).
`O=C(O)c1cc(Cl)nnc1Oc1cccc(C(F)(F)F)n1` [Compound 1-031]: the LogP was 0.69^[b].
Same read-out and setting: the same measure for `O=C(O)c1cc(Cl)nnc1Oc1cncc(C2CC2)c1` [Compound 1-051]: 0.59^[b].

Still in this series, the particulars now being: reversed-phase HPLC column, method [a].
For the compound `CC(=O)c1cc(C(=O)NCC(F)c2ccc(Br)cc2Cl)c(Oc2cccc(C(F)(F)F)c2)nn1` (racemic) [Compound I-605, 6-acetyl-N-[rac-2-(4-bromo-2-chloro-phenyl)-2-fluoro-ethyl]-3-[3-(trifluoromethyl)phenoxy]pyridazine-4-carboxamide], the chromatographic logP turned out to be 4.49.

The series is the same for the next values; noted with them: reversed-phase HPLC column, method [a]: LC-UV, acidic range, 0.1% formic acid in water and acetonitrile as eluent (10% to 95% acetonitrile); Table 3, compounds of formula (1).
With `COC(=O)c1c(Oc2cccc(C(F)(F)F)c2)nnc(Cl)c1C1CC1` [Compound 1-001], the chromatographic logP was found to be 3.94.
On the same count and under the same terms, the same measure for `Cc1c(Cl)nnc(Oc2cccc(Cl)c2)c1C(=O)O` [Compound 1-002, 6-chloro-3-(3-chlorophenoxy)-5-methyl-pyridazine-4-carboxylic acid]: 1.39; for `CSc1cc(C(=O)O)c(Oc2cccc(C(F)(F)F)c2)nn1` [Compound 1-004, 6-methylsulfanyl-3-[3-(trifluoromethyl)phenoxy]pyridazine-4-carboxylic acid]: 2.25; for `COC(=O)c1c(Oc2cccc(C(F)F)c2F)nnc(C)c1C` [Compound 1-006]: 2.64.
The same measure, in the same setting: the same measure for `COCCc1c(Cl)nnc(Oc2cccc(C(F)(F)F)c2)c1C(=O)O` [Compound 1-026, 6-chloro-5-(2-methoxyethyl)-3-[3-(trifluoromethyl)phenoxy]pyridazine-4-carboxylic acid]: 1.74; for `COC(=O)c1c(Oc2cccc(Cl)c2)nnc(Cl)c1C` [Compound 1-033, methyl 6-chloro-3-(3-chlorophenoxy)-5-methyl-pyridazine-4-carboxylate]: 3.37; for `CCOC(=O)c1cc(C)nnc1Oc1cncc(C(F)(F)F)c1` [Compound 1-036]: 2.37.
On the same count and under the same terms, the result for `COC(=O)c1c(Oc2cccc(Cl)c2)nnc(C)c1C` [Compound 1-042] reads 2.71.
In turn, `COC(=O)c1c(Oc2cccc(C(F)(F)F)c2)nnc(Cl)c1OC` [Compound 1-046] registered a chromatographic logP of 3.52.
Take `COC(=O)c1c(Oc2cccc(C(F)(F)F)c2)nnc(Cl)c1Cl` [Compound 1-049]: the chromatographic logP worked out at 3.86.
`COC(=O)c1c(Oc2cccc(C(F)F)c2F)nnc(Cl)c1Cl` [Compound 1-055] yielded a chromatographic logP of 3.51.
Same read-out and setting: the same measure for `CCOC(=O)c1c(Oc2cccc(C3CC3)c2)nnc(Cl)c1Cl` [Compound 1-056]: 4.41.
The same measure, in the same setting: the result for `CCOC(=O)c1c(Oc2cccc(C(F)(F)F)c2)nnc(Cl)c1OCC` [Compound 1-060] reads 4.23; that for `COC(=O)c1c(Oc2cccc(C(F)(F)F)c2F)nnc(Cl)c1Cl` [Compound 1-064], 3.96.
Take `C=Cc1c(Cl)nnc(Oc2cccc(C(F)(F)F)c2)c1C(=O)OC` [Compound 1-069, methyl 6-chloro-3-[3-(trifluoromethyl)phenoxy]-5-vinyl-pyridazine-4-carboxylate]: the chromatographic logP amounted to 3.94.
Still for that read-out and setting: the same measure for `COC(=O)c1cc(Cl)nnc1Oc1cccc(C(F)(F)F)n1` [Compound 1-071]: 2.69; for `COC(=O)c1cc(Cl)nnc1Oc1cccc(C(F)(F)F)c1` [Compound 1-079]: 3.27.
Same read-out and setting: the same measure for `CCOC(=O)c1cc(SC)nnc1Oc1cccc(C(F)(F)F)c1` [Compound 1-083]: 3.96; for `COC(=O)c1c(Oc2cccc(C(F)(F)F)c2)nnc(Cl)c1-c1ccccc1` [Compound 1-085]: 4.25; for `COC(=O)c1cc(Cl)nnc1Oc1cncc(Br)c1` [Compound 1-086]: 2.33.

Staying with this series, now noted: reversed-phase HPLC column; method [b]: LC-UV, neutral range, 0.001 molar ammonium acetate solution in water and acetonitrile as eluent (10% to 95% acetonitrile); Table 3, compounds of formula (1).
For `CCOC(=O)c1cc(Cl)nnc1Oc1cncc(C2CC2)c1` [Compound 1-076], the chromatographic logP was 2.6.
